{
  "source": "patent US12071469B2",
  "about": "“Peptide compounds for suppressing inflammation” (Duke University, priority 2011, dated 2024)",
  "key": {"[1]": {"tested_on": "primary rat neuronal cortical culture exposed to NMDA", "test": "Neuroprotection from NMDA mediated cell death in primary neuronal culture (LDH release)", "type": "cell-based", "experimental": "Peptides of 5 amino acids in length were applied to one or more samples of cells in parallel at concentrations ranging from about 0 to about 50 μM, such as 0.3, 3, and 30 μM. The peptides AL-10-1 (SEQ ID NO:18) and VL-17-9 (SEQ ID NO:19), which are longer peptides (12 amino acids each) were used as negative and positive controls, respectively. A series of peptides were screened in primary rat neuronal cortical culture exposed to NMDA using the method described in Aono et al., Neuroscience (2003) 116:437 and Aono et al., Neurobiology of Disease (2002) 11:214, both of which are incorporated by reference in their entirety (see Table 2). Neuroprotection from NMDA mediated cell death in primary neuronal culture was expressed as percentage decrease in LDH, 24 hours after exposure to NMDA compared to vehicle treated cultures (Table 2). LDH release is indicative of neuronal death after NMDA exposure. The peptide VR-55 (SEQ ID NO:4) reduced NMDA mediated excitotoxic cell death by approximately 19% at a concentration of 1 μM. […] The positive control peptide VL-17-9 reduced LDH release by 31%.\nDose response of the neuroprotection from NMDA excitotoxicity in primary neuronal culture was determined for ApoE mimetic peptide VR-55 (SEQ ID NO: 4). […] “0” indicates less than 5% suppression; “+” indicates 5-10% suppression; “++” indicates 11-20% suppression; and “+++” indicates greater than 20% suppression. In addition to VL-17-9, several other candidates had greater than 20% suppression, including VR-55, VL-5-1, VL-5-2 and VR-52."}, "[2]": {"tested_on": "mice with traumatic brain injury", "test": "Morris water maze neurocognitive performance after traumatic brain injury", "type": "in vivo, mouse", "settings": "0.05 mg/kg or 0.2 mg/kg iv at 2 h and 6 h after traumatic brain injury; days 28-31 post-injury; FIG. 4", "experimental": "An experimental murine model for traumatic brain injury was developed. Laskowitz, et al. (2010) J. Neurotrauma, 27:1983-95. Male mice (age 12-14 weeks) were anesthetized with 4.3% isoflurane in oxygen in an anesthesia induction box for 90 seconds. The trachea was intubated and the lungs mechanically ventilated with 1.4% isoflurane in a 50/50 mixture of oxygen and nitrogen. Body temperature was maintained at 37° C. using surface heating/cooling. The top of the skull was exposed by a midline incision to identify anatomical landmarks, and a concave 3-mm metallic disc was secured to the skull surface with an adhesive, directly midline and just caudal to the bregma. […]\nAnother experimental procedure for measuring neurological deficits was developed using a Morris water maze. […] Latency to finding the platform and swimming speed were recorded using a computerized video tracking system (Ethovision 2.2.14; available from Noldus Information Technology, Leesburg VA).\nGroups of mice received either an ApoE mimetic peptide (SEQ ID NO:4; 0.05 mg/kg) or carrier (saline) by intravenous tail vein injection at 2 hours and again at 6 hours after traumatic brain injury induced as described in Example 3. Each mouse was tested for vestibulomotor function by rotorod latency measured before and after injury, as described in Example 3. […]"}},
  "data": [
    {"substance": "Ac-VSRRR-NH2 [VR-55, Ac-VSRRR-NH2]", "values": [
      {"measurement": "dose response of percent suppression of LDH release after NMDA exposure", "setting": "[1]; FIG. 6", "result": "dose dependent"},
      {"measurement": "percentage decrease in LDH, 24 hours after exposure to NMDA compared to vehicle treated cultures", "setting": "[1]; peptide 0.1 μM", "result": "−2.85", "unit": "%"},
      {"measurement": "percentage decrease in LDH, 24 hours after exposure to NMDA compared to vehicle treated cultures", "setting": "[1]; peptide 0.3 μM", "result": 1.50, "unit": "%"},
      {"measurement": "suppression of LDH release, cumulative data (class)", "setting": "[1]; peptide 1 μM, cumulative data", "result": "+++ (greater than 20% suppression)"},
      {"measurement": "percentage decrease in LDH, 24 hours after exposure to NMDA compared to vehicle treated cultures", "setting": "[1]; peptide 3 μM", "result": 15.91, "unit": "%"},
      {"measurement": "neurocognitive outcomes (Morris water maze latency)", "setting": "[2]", "result": "improved neurocognitive outcomes"}
    ]}
  ]
}
